In patent publication US20260000676A1, “CHROMAN DERIVATIVES AS ESTROGEN RECEPTOR DEGRADERS” (THE REGENTS OF THE UNIVERSITY OF MICHIGAN, priority 2022, published 2026):
Where a name gives a salt, the structure may show the parent alone.

Assays:
CRBN/DDB1 = CRBN/DDB1 (Homo sapiens (Human), UniProt Q96SW2); assay: HTRF binding assay to CRBN/DDB1; details: read-out: CRBN HTRF IC50
Description: The binding potency was determined using HTRF assay technology (Perkin Elmer). Compounds were serially diluted in DMSO and 0.2 μL volume was transferred to white 384-well plate.

ER [1] = molecular target: T1, ER (Homo sapiens (Human), UniProt P03372); assay: In-cell western (ICW) ER degradation assay in T47D cells; type: cell-based; details: 16 hrs; for DC50: ER degradation; for Dmax: maximal ER degradation
T1 sequence (P03372 whole entry): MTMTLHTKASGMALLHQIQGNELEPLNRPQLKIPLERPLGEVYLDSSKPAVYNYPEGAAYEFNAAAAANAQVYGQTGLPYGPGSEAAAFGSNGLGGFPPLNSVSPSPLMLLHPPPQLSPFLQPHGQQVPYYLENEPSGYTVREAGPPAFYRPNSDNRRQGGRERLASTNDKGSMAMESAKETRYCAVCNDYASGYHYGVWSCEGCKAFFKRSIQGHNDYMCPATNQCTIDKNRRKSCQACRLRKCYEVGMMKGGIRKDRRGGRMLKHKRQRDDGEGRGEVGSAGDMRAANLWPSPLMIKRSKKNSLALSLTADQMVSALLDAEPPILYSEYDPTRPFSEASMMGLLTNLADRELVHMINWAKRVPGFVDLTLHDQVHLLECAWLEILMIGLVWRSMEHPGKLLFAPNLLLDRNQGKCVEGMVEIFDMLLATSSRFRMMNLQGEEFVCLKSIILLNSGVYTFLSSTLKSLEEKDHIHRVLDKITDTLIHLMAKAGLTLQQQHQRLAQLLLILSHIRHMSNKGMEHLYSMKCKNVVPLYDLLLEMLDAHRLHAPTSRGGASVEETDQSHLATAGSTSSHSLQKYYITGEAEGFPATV
Description: (§1) ERa degradative activity of compounds can be assessed in MCF-7 and T47D Cells. MCF-7 and T47D cell are seeded and are subsequently treated with the compounds at certain concentrations (e.g., 0.02 to 300 nM). DMSO can be used as vehicle control. Cells are fixed and are blocked with Intercept (PBS) Blocking Buffer (e.g., Li-COR, Odyssey Blocking Buffer), and are stained with ER (e.g., 1:500, Cell signaling) primary antibody for overnight at cold room. Secondary Antibody (e.g., IRDye 800CW Goat anti-Rabbit IgG) and CellTag 700 Stain are added in Intercept (PBS) Blocking Buffer. Finally, cell plate is placed in incubator to dry. Image and signal are captured on Odyssey® DLx Imaging System.
(§2) Day 3: After 16 hrs of compounds treatment, cells were fixed by 4% PFA and permeabilized with elution buffer (0.1% Triton X-100 in 1% PBS Solution). Subsequently, cells were blocked with Intercept (PBS) Blocking Buffer (Li-COR, Odyssey Blocking Buffer), and were stained with ER (1:500, Cell signaling) primary antibody for overnight at cold room.
(§3) Day 4: Remove the buffer, add IRDye 800CW Goat anti-Rabbit IgG Secondary Antibody (1:2000) and CellTag 700 Stain (1:500) in Intercept (PBS) Blocking Buffer. Finally, cell plate is placed in incubator to dry. Image and signal were captured on Odyssey® DLx Imaging System.

ER [2] = molecular target: T1, ER; assay: In-cell western (ICW) ER degradation assay in MCF-7 cells; type: cell-based; details: MCF7, 16 hrs; for DC50: ER degradation; for Dmax: MCF7, maximal ER degradation
Description: as §1, §2, §3

Sequence of CRBN/DDB1 (Q96SW2 whole entry): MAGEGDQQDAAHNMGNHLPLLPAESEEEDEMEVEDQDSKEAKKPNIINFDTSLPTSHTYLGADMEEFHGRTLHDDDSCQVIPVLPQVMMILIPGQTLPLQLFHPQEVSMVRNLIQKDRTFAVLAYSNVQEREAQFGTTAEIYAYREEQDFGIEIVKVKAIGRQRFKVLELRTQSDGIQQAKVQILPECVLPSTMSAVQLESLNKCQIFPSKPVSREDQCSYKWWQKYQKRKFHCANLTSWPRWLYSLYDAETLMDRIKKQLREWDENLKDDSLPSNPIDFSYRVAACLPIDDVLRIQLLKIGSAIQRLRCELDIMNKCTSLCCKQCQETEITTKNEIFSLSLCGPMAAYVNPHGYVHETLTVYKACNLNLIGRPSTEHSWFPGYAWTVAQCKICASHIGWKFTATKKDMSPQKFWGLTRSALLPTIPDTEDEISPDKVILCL
Sequence of CRBN/DDB1 (Q16531 whole entry partner): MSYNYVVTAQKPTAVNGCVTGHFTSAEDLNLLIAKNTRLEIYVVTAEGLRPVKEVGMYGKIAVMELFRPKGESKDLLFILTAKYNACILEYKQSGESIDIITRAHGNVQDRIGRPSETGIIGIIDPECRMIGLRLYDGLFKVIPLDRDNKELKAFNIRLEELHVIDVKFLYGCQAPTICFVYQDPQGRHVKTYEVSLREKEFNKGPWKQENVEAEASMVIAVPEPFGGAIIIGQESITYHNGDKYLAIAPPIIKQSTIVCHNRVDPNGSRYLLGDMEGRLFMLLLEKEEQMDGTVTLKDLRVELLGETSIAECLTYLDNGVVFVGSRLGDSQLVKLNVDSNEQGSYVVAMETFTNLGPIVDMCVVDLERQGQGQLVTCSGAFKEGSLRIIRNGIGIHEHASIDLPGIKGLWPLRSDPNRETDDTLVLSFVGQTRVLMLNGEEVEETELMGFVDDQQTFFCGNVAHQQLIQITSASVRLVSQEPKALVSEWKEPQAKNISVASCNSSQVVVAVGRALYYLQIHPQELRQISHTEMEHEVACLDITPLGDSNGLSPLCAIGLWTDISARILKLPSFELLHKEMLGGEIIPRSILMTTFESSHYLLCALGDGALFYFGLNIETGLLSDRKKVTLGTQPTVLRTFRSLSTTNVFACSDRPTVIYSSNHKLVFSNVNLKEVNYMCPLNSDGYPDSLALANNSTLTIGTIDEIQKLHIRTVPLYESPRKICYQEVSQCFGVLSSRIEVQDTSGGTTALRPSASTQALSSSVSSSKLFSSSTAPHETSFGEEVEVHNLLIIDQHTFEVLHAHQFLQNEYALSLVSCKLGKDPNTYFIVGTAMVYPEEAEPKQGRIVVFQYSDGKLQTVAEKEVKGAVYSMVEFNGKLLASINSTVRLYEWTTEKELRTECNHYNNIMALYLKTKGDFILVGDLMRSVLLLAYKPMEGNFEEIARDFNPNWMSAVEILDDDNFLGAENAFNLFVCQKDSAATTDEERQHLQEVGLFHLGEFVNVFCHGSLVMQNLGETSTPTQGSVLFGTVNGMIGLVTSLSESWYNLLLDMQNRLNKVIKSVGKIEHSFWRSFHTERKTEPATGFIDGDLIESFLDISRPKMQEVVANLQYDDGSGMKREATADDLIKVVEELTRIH

Row | Structure (SMILES) | IC50 (CRBN/DDB1) | DC50 (ER [1]) | Dmax (ER [1]) | DC50 (ER [2]) | Dmax (ER [2]) | MCF7 Dmax % (ER [2]; maximal ER degradation)
1 | O=C1CC[C@@H](NC(=O)c2ccc(N3CCC(CN4CC5(CCN(c6ccc([C@H]7c8ccc(O)cc8OC[C@H]7c7ccccc7)cc6)CC5)C4)CC3)cn2)C(=O)N1 (single isomer, unassigned) [Compound A111] | 500 to 5000 nM | < 1 nM | 50 to 75% | < 1 nM | 50 to 75% | –
2 | COc1nc(C(=O)NC2CCC(=O)NC2=O)ccc1N1CCN(CC2CC3(CCN(c4ccc([C@H]5c6ccc(O)cc6OC[C@H]5c5ccccc5)cc4)CC3)C2)CC1 (single isomer, unassigned) [Compound A97] | 500 to 5000 nM | < 1 nM | 25 to 50% | – | – | –
3 | O=C1CCC(Nc2ccc3c(c2)OC[C@H]2CN(CC4CCN(c5ccc([C@@H]6c7ccc(O)cc7OC[C@@H]6c6ccccc6)cc5)CC4)CCN32)C(=O)N1 (single isomer, unassigned) [Compound A91, hydrochloride] | > 5000 nM | 1 to 10 nM | – | 1 to 10 nM | – | –
4 | O=C1CCC(Nc2ccc(C3CCN(CC4CCN(c5ccc([C@@H]6c7ccc(O)cc7OC[C@@H]6c6ccccc6)cc5)CC4)CC3)c(F)c2)C(=O)N1 (single isomer, unassigned) [Compound A72] | 50 to 500 nM | < 1 nM | 25 to 50% | > 100 nM | < 25% | –
5 | O=C1CCC(NC(=O)c2ccc(C3CCN(CC4CCN(c5ccc([C@H]6c7ccc(O)cc7OC[C@H]6c6ccccc6)cc5F)CC4)CC3)cn2)C(=O)N1 (single isomer, unassigned) [Compound A101] | > 5000 nM | < 1 nM | < 25% | – | – | –
6 | O=C1CCC(N2Cc3c(ccc4c3OC[C@H]3CN(CC5CCN(c6ncc([C@@H]7c8ccc(O)cc8OC[C@@H]7c7ccccc7)cn6)CC5)CCN43)C2=O)C(=O)N1 (single isomer, unassigned) [Compound A36] | 50 to 500 nM | – | – | 10 to 100 nM | 25 to 50% | –
7 | COc1cccc([C@@H]2COc3cc(O)ccc3[C@@H]2c2ccc(N3CCC(CN4CCN5c6ccc7c(c6OC[C@H]5C4)CN(C4CCC(=O)NC4=O)C7=O)CC3)cc2)c1 (single isomer, unassigned) [Compound A34] | 50 to 500 nM | – | – | 1 to 10 nM | 25 to 50% | –
8 | O=C1CCN(c2ccc(N3CCC(CN4CC5(CCN(c6ccc([C@@H]7c8ccc(O)cc8OC[C@@H]7c7ccccc7)cc6)CC5)C4)CC3)cc2)C(=O)N1 (single isomer, unassigned) [Compound A87] | > 5000 nM | 1 to 10 nM | 25 to 50% | – | – | –
9 | O=C1CC[C@H](N2Cc3c(ccc4c3OC[C@H]3CN(CC5CC6(CCN(c7ccc([C@@H]8c9ccc(O)cc9OC[C@@H]8c8ccccc8)cc7)CC6)C5)CCN43)C2=O)C(=O)N1 (single isomer, unassigned) [Compound A37] | < 50 nM | – | – | 1 to 10 nM | – | C (“C”: 25%-50%)
10 | O=C1CCC(N2Cc3c(ccc4c3OC[C@H]3CN(CC5CCN(c6ccc([C@@H]7c8ccc(O)cc8OC[C@@H]7c7ccccc7)cc6F)CC5)CCN43)C2=O)C(=O)N1 (single isomer, unassigned) [Compound A9] | 50 to 500 nM | – | – | 1 to 10 nM | – | –
11 | O=C1CCN(c2ccc(N3CCN(CC4CC5(CCN(c6ccc([C@@H]7c8ccc(O)cc8OC[C@@H]7c7ccccc7)cc6)CC5)C4)CC3)cc2)C(=O)N1 (single isomer, unassigned) [Compound A83] | > 5000 nM | > 100 nM | < 25% | – | – | –
12 | O=C1CCC(N2Cc3cc4c(cc3C2=O)CN(C(=O)C2CCN(C3CCN(c5ccc([C@H]6c7ccc(O)cc7OC[C@H]6c6ccccc6)cc5)CC3)CC2)C4)C(=O)N1 (single isomer, unassigned) [Compound A80] | 500 to 5000 nM | 10 to 100 nM | 50 to 75% | – | – | –
13 | Cc1nn(C2CCC(=O)NC2=O)c2ccc(N3CCN(CC4CC5(CCN(c6ccc([C@H]7c8ccc(O)cc8OC[C@H]7c7ccccc7)cc6)CC5)C4)CC3)cc12 (single isomer, unassigned) [Compound A17] | 50 to 500 nM | – | – | < 1 nM | 50 to 75% | –
